Legend:
permeabilized 4T1 cells = assay: High-resolution fluorespirometry (respiration and H2O2 flux); assay type: cell-based, mouse
Description: High-resolution fluorespirometry was performed using an Oxygraph-2 k system (OROBOROS INSTRUMENTS, Austria). All experiments were performed at 37 °C in MiR05 medium (110 mM sucrose, 60 mM K-lactobionate, 0.5 mM EGTA, 3 mM MgCl2, 20 mM taurine, 10 mM KH2PO4, 20 mM HEPES, pH 7.1 at 30 °C, and 0.1% BSA essentially fatty acid free). The medium was reoxygenated when the oxygen concentration dropped to 80 µM. H2O2 flux was simultaneously measured with respirometry in the O2k-Fluorometer using the H2O2-sensitive probe Ampliflu Red (AmR) as described. The H2O2/O flux ratio [%] was calculated as the H2O2 flux/(0.5 O2 flux).
In permeabilized 4T1 cells, pyruvate + malate (5 and 2 mM) or glutamate + malate (10 and 2 mM) were used to determine complex I (CI)-linked LEAK (L) respiration. ADP was added to a concentration of 5 mM to determine the oxidative phosphorylation-dependent respiration (OXPHOS state). Succinate (10 mM, complex II (CII) substrate) was then added to reconstitute convergent CI&II-linked respiration. Rotenone (0.5 µM, an inhibitor of complex I) and antimycin A (2.5 µM, an inhibitor of complex III) were added to determine the CII-linked OXPHOS capacity and residual oxygen consumption (ROX), respectively. Compound 6 was added to permeabilized cells after the addition of the respective substrates in the OXPHOS state (titration experiment) or in the LEAK state. In addition, compounds 3, 6 and 7 were tested at 1 µM in the OXPHOS coupling protocol in the LEAK state. The OXPHOS coupling efficiency was calculated as: 1-Resp.rateLEAKstate/Resp.rateOXPHOSstate
The substrate-dependent flux control factor was calculated as: 1-Resp.ratebeforeadditionofrespectivesubstrate/Resp.rateafteradditionofrespectivesubstrate

DOPC liposomes = assay: 1H NMR interaction study with DOPC liposomes; assay type: binding; settings: 0.4 mM 6, 1.6 mM DOPC, 25 °C
Description: (§1) Cardiolipin (CL) liposomes for NMR analysis were prepared by the thin-film method followed by sonication and extrusion. […] The obtained lipid thin film was dried in vacuo overnight. Then, the dry lipid film was rehydrated in D18 HEPES buffer (20 mM, pH 7.4, 10% D2O) and gently vortexed, and the samples were sonicated for 30 min in a bath-type sonicator. The obtained sample of liposomes was extruded 21 times through a 100-nm pore polycarbonate filter (Nucleopore Corp., CA). Similarly, liposomes from DOPC only were prepared.
(§2) To study the interactions of compound 6 with CL and DOPC liposomes, a stock solution of 6 (2 mM) in D18 HEPES buffer (20 mM, pH 7.4, 10% D2O) was added to CL/DOPC or DOPC liposome dispersions to reach 400:1200:400 µM CL/DOPC/6 solution or 1600:400 µM DOPC/6 solution followed by gentle vortexing for 30 s.
(§3) NMR spectra were acquired on a 600‐MHz Bruker Avance NEO spectrometer equipped with a 5 mm QCI-F quadruple resonance pulsed‐field‐gradient cryoprobe. The temperature was calibrated against methanol and set to 25 °C. Chemical shifts were referenced to the water resonance at 4.77 ppm with respect to 4,4-dimethyl-4-silapentane-1-sulfonic acid (DSS). The samples contained […] 6 in 90% H2O and 10% D2O with and without DOPC or CL/DOPC liposomes. The NMR data were processed and analyzed using MestReNova software.

[1] = system: CL/DOPC liposomes (cardiolipin); assay: 1H NMR interaction study with CL-containing liposomes; assay type: binding; settings: 0.4 mM 6, 1.2 mM DOPC, 0.4 mM CL, 25 °C
Description: as §1, §2, §3

[2] = Cytotoxicity assay (MTT), HEKa; assay type: cell-based, human; settings: human, HEKa cells (primary epidermal keratinocytes), normal cell line, mean ± S.D., 3 experiments
Description: (§4) MCF-7 (human breast adenocarcinoma, estrogen-positive) and 4T1 (mouse carcinoma), as breast cancer cell lines, and H9C2 (rat cardiomyoblasts), NIH 3T3 (mouse fibroblasts), HEKa (primary human epidermal keratinocytes), MDCK (Madin-Darby Canine Kidney) cells, and A7r5 (rat vascular smooth muscle cells), as normal cell lines, were obtained from the American Type Culture Collection [ATCC] collection for use in the current study. All cell lines were cultured in Dulbecco's modified Eagle's medium (DMEM) containing 10% fetal bovine serum (FBS) and 4 mM L-glutamine at 37 °C and 5% CO2.
(§5) Cell viability was assessed by the addition of 3-(4,5-dimethylthiazol-2-yl)-2,5-diphenyltetrazolinium bromide (MTT). Briefly, cells were seeded (2–6 × 10^4 cells/ml) in 96-well plates and allowed to attach for 24 h. Solutions of test compounds were prepared and serially diluted to obtain the appropriate concentrations. The cells were treated with the test compounds at different concentrations (0.032–100 µM) and incubated for 48 h at 37 °C and 5% CO2. Then, the culture medium was removed, and medium containing 0.2 mg/ml MTT was added. After 3 h (37 °C, 5% CO2), the MTT-containing medium was removed, and 200 μl of dimethyl sulfoxide (DMSO) was immediately added to each sample. The absorbance was assessed at 540 nm using a Tecan multiplate reader Infinite 1000 (Austria). The half-maximal inhibitory concentration (IC50) of each compound was calculated using Graph Pad Prism 3.0.

[3] = Cytotoxicity assay (MTT), H9C2; assay type: cell-based, rat; settings: rat, H9C2 cells (cardiomyoblasts); normal cell line; MTT, 48 h; mean ± S.D., 3 experiments
Description: as §4, §5

[4] = 1 µM, pyruvate-dependent OXPHOS state
[5] = titration, pyruvate + malate and glutamate + malate, OXPHOS

OC1(c2[se][n+]3ccsc3c2Br)CCCCC1 [Compound 6, 3-bromo-2-(1-hydroxycyclohexyl)[1,2]selenazolo[2,3-b]thiazolium chloride]
H2O2 production and H2O2/O ratio in the CI&II-linked OXPHOS state (permeabilized 4T1 cells; 1 µM): significant increases | OXPHOS coupling efficiency (permeabilized 4T1 cells; 1 µM): significant decrease | respiration rate in the OXPHOS state with pyruvate and malate (permeabilized 4T1 cells; 1 µM): decreased | increase in H2O2/O ratio (permeabilized 4T1 cells; [4]): 2.8 fold | increase in H2O2 production (permeabilized 4T1 cells; [4]): 2.3 fold | mitochondrial function in the CII-linked OXPHOS state (permeabilized 4T1 cells; titration): no significant changes | H2O2 production with complex I (NADH-linked) substrates (permeabilized 4T1 cells; [5]): increased | mitochondrial respiration rate with complex I (NADH-linked) substrates (permeabilized 4T1 cells; [5]): inhibited | aromatic 1H NMR resonances in the presence of DOPC liposomes (DOPC liposomes): noticeably broadened | 1H NMR resonances in the presence of CL-containing liposomes [1]: broadened | IC50 at 48 h [2]: 2.84 ± 0.08 µM | IC50 at 48 h [3]: 3.7 ± 0.2 µM

Reference: paper PMC7725824, “Fused isoselenazolium salts suppress breast cancer cell growth by dramatic increase in pyruvate-dependent mitochondrial ROS production” (Scientific Reports, 2020)
